Patent US10973748B2, “Compositions and methods for lightening skin and reducing hyperpigmentation” (Versitech Limited, priority 2016, dated 2021)

Tests used:
[1] = tested on: MelanoDerm (Mel-300-A) epidermal equivalents containing melanocytes; assay: Tissue viability of artificial skin model (CCK-8); format: cell-based, human; settings: whole treatment period (14 days), rapamycin 2.5 μM, 6-CEPN 10 μM, 8-CEPQ 5 μM
Description: (§1) Epidermal equivalents containing melanocytes (Mel-300-A) were maintained according to the manufacturer's instructions. Mel-300-A tissue was cultured in EPI-100-NMM-113 medium for 14 days. Agents were dissolved in tissue culture medium and changed every other day. The test agents were either (1) rapamycin (2.5 μM), as the positive control in depigmentation, (2) 6-CEPN (10 μM), or (3) 8-CEPQ (5 μM). The concentration of rapamycin used was lower than 6-CEPN and 8-CEPQ, as rapamycin is toxic to cells at higher concentration. Pigmentation of these skin equivalents was compared against treatment of cells with a culture medium only (denoted as “vehicle”). Tissue viability was assessed on day 14 by CCK-8 assay as described in Example 1. On day 14, single tissues were harvested and photographed. The L* parameter was used to evaluate skin lightening or darkening. The lighter the skin, the greater the L* value. ΔL* value was measured by a Chroma Meter CR400 (Konica Minolta) for an evaluation of lightening as a function of time. Three tissues for each treatment were frozen for the Solvable Melanin assay (Bessou-Touya et al., “Chimeric human epidermal reconstructs to study the role of melanocytes and keratinocytes in pigmentation and photoprotection.” Journal of investigative dermatology 111(6):1103-1108 (1998)). Additional tissues were fixed by 10% formanin. For melanin staining in paraffin-embedded tissues, Fontana-Masson silver staining was used as previously detailed (Barbosa et al., “A simple and economical modification of the Masson-Fontana method for staining melanin granules and enterochromaffin cells.” Stain technology 59(4):193-196 (1984)).

[2] = tested on: MelanoDerm (Mel-300-A) epidermal equivalents containing melanocytes; assay: Fontana-Masson silver staining of artificial skin model; format: cell-based, human; settings: day 14, rapamycin 2.5 μM, 6-CEPN 10 μM
Description: as §1

tyrosinase = target: T1, tyrosinase (Mus musculus, UniProt P11344); assay: Cellular tyrosinase activity assay (L-DOPA oxidation in cell lysates); format: cell-based, murine; settings: melan-a cells, α-MSH, 72 hrs; 6-CEPN 10 or 20 μM, 8-CEPQ 2.5 or 5 μM
T1 construct: endogenous in cells; host or cells: melan-a cells
T1 sequence (P11344 19-533): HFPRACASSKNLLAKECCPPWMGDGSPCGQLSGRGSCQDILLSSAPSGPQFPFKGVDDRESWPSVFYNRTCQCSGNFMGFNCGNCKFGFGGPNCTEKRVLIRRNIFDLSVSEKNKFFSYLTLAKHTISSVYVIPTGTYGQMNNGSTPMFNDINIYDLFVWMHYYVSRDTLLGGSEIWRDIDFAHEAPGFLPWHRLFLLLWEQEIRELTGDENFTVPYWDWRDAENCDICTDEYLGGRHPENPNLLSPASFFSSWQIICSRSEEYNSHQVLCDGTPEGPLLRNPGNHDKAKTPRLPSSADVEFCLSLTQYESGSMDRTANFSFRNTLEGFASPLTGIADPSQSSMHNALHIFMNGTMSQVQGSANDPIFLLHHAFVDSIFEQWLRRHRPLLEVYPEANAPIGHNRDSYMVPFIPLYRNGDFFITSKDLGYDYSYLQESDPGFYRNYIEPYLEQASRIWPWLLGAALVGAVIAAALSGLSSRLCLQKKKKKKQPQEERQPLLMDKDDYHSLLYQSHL
Description: Cellular tyrosinase activity was determined by measuring the oxidation of L-3,4-dihydroxyphenylalanine (L-DOPA) to dopachrome in cell lysates. Melan-a cells (1.5×10^5 cells/well) were plated in 1 mL of culture medium in a 24-well multidishes for at least 24 hrs prior to use. The cells were treated with α-MSH (1 μM) alone or with α-MSH plus different concentrations of testing agents for 72 hrs. The cells were washed with cold PBS and lysed in 900 μL of PBS with 1% Triton X-100. After being freeze-thawed at −80° C. for 30 min followed by 25° C. for 30 min, 100 μL of 10 mM L-DOPA was then added to each well. Following incubation at 37° C. for 1 hr, the absorbance of the agents was measured at 490 nm using Victor X4 Multilabel Plate Reader (PerkinElmer, Mass., USA).

[3] = tested on: MelanoDerm (Mel-300-A) epidermal equivalents containing melanocytes; assay: Depigmentation in artificial skin model: brightness and L* value; format: cell-based, human; settings: 6-CEPN 10 μM, 8-CEPQ 5 μM
Description: as §1

melan-a cells = assay: Melanosome autophagy by fluorescence microscopy; format: cell-based, murine; settings: α-MSH, rapamycin 0.5 μM 24 hrs, 6-CEPN 10 μM, 8-CEPQ 5 μM 72 hrs
Description: Melan-a cells (1.5×10^5 cells/well) were seeded on coverslips in 6-well palte. The cells were treated with (1) α-MSH (1 μM) alone for 24 hrs, (2) α-MSH (1 μM) plus rapamycin (0.5 μM) for 24 hrs, (3) α-MSH (1 μM) plus 6-CEPN (10 μM), or (3) α-MSH (1 μM) plus 8-CEPQ (5 μM) for 72 hrs. Culture medium was removed carefully after the cells reached 50%˜70% level of confluence. Cells were stained by microscopy dual detection reagents (autophagy detection kit, Abcam) for 30 mins at 37° C. The stained cells were analyzed by wide-field fluorescence microscopy (60× magnification). Standard FITC filter and DAPI filter were set to image the autophagic signal and the nuclear signal, respectively.

[4] = tested on: MelanoDerm (Mel-300-A) epidermal equivalents containing melanocytes; assay: Solvable Melanin assay in artificial skin model; format: cell-based, human; settings: 14 days, rapamycin 2.5 μM, 6-CEPN 10 μM, 8-CEPQ 5 μM
Description: Epidermal equivalents containing melanocytes (Mel-300-A) were maintained according to the manufacturer's instructions. Mel-300-A tissue was cultured in EPI-100-NMM-113 medium for 14 days. Agents were dissolved in tissue culture medium and changed every other day. The test agents were either (1) rapamycin (2.5 μM), as the positive control in depigmentation, (2) 6-CEPN (10 μM), or (3) 8-CEPQ (5 μM). The concentration of rapamycin used was lower than 6-CEPN and 8-CEPQ, as rapamycin is toxic to cells at higher concentration. Pigmentation of these skin equivalents was compared against treatment of cells with a culture medium only (denoted as “vehicle”). Tissue viability was assessed on day 14 by CCK-8 assay as described in Example 1. On day 14, single tissues were harvested and photographed. The L* parameter was used to evaluate skin lightening or darkening. The lighter the skin, the greater the L* value. ΔL* value was measured by a Chroma Meter CR400 (Konica Minolta) for an evaluation of lightening as a function of time. Three tissues for each treatment were frozen for the Solvable Melanin assay (Bessou-Touya et al., “Chimeric human epidermal reconstructs to study the role of melanocytes and keratinocytes in pigmentation and photoprotection.” Journal of investigative dermatology 111(6):1103-1108 (1998)). Additional tissues were fixed by 10% formanin. […]

## CO[C@H]1C[C@@H]2CC[C@@H](C)[C@@](O)(O2)C(=O)C(=O)N2CCCC[C@H]2C(=O)O[C@H]([C@H](C)C[C@@H]2CC[C@@H](O)[C@H](OC)C2)CC(=O)[C@H](C)/C=C(\C)[C@@H](O)[C@@H](OC)C(=O)[C@H](C)C[C@H](C)/C=C/C=C/C=C/1C [rapamycin, reference compound]
[1]
  cytotoxicity (tissue viability): without significant cytotoxicity
[2]
  thickness of basal layer of tissue: thinner than 6-CEPN-treated or non-treated control groups

## O=c1c(O)c(-c2ccc(O)c(O)c2)oc2c(/C=C/c3ccccc3)c(O)cc(O)c12 [8-CEPQ, 8-C-(E-phenylethenyl)-quercetin]
tyrosinase
  tyrosinase activity: significant inhibition on tyrosinase activity in a dose-dependent manner
[3]; 14 days, rapamycin 2.5 μM
  brightness of the tissues (visual examination): increased the brightness of the tissues
[3]; day 14, rapamycin 2.5 μM
  L* value vs negative control: increased the L* value
[1]
  cytotoxicity (tissue viability): without significant cytotoxicity
melan-a cells
  melanosome autophagy: induced melanosome autophagy
[4]
  amount of melanin in human skin equivalents: significantly inhibited the amount of melanin
